Measurements published in ChEMBL document CHEMBL1143327, “Carbonic anhydrase inhibitors: inhibition studies of a coral secretory isoform with inorganic anions” (Bioorg Med Chem Lett, 2009).

Target: Carbonic anhydrase 4 (Homo sapiens, UniProt P22748)
Sequence (P22748 whole entry): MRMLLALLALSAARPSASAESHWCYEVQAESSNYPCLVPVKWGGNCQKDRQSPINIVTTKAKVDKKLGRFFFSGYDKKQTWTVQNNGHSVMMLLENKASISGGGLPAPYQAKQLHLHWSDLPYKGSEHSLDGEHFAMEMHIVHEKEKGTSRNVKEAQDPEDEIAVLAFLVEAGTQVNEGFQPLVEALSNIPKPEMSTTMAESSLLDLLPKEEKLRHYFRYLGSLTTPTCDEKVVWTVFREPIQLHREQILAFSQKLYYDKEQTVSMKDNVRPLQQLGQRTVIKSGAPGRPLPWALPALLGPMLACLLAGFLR

Row | Ki | Structure (SMILES)
1 | 90 µM | NS(=O)(=O)O [SULFAMATE]
2 | 820 µM | OB(O)c1ccccc1 [PHENYLBORONIC ACID]
